# Measurements from patent publication US11661431B2, “Thienopyrrole compounds” (Gilead Sciences, Inc., priority 2021, dated 2023).
# Experiments:
# [1] = biological target: TLR7 (Homo sapiens (Human), UniProt Q9NYK1); experiment: TLR7 human peripheral blood mononuclear cell (PBMC) cell-based assay (GS-986 as agonist; IL-6 and IFNα readout); conditions: human PBMCs, TLR7 agonist GS-986 at 400 nM, 6 hours, antagonist potency; read-out: TLR-7 EC50
# Procedure: Human peripheral blood mononuclear cells (PBMCs) consist of lymphocytes, monocytes and dendritic cells that express TLR7, TLR8 and TLR9. These cells respond to TLR7, TLR8 and TLR9 ligand stimulation and produce cytokines and chemokines in vitro and in vivo. Human PBMCs are therefore suitable to be used in a cell-based assay to assess the in vitro potency of a TLR 7, 8, and/or 9 antagonist.
# After counting, the cell density was adjusted to 2 million cells/ml and incubated for 1 hour at 37° C., 5% CO2 for recovery. Following the recovery, the cells were plated by adding 50 μl per well (100,000 cells) to 384-well cell culture plates (Greiner) containing 250 nl of test antagonists in 100% DMSO per well, in a 10 points dose response in quadruplicates. PBMCs were incubated in the presence of test antagonists for one hour at 37° C., 5% CO2 before being stimulated with a TLR7 or TLR9agonist. […] PBMCs were incubated in the presence of the test antagonist and the TLR7 (or TLR9) agonist for an additional 6 hours at 37° C., 5% CO2. At the end of the incubation, the cell culture plates were centrifuged at 500 g for 5 min, and the cell culture supernatant was collected. The level of cytokines (IL-6 and IFNα) in the supernatant was measured by electrochemiluminescence immunoassays (Mesoscale Discovery) following manufacturer's recommended protocols.
# [2] = biological target: TLR8 (Homo sapiens (Human), UniProt Q9NR97); experiment: TLR8 human peripheral blood mononuclear cell (PBMC) cell-based assay (Compound A as agonist; TNFα and IL12p40 readout); conditions: human PBMCs, TLR8 agonist Compound A at 800 nM, 6 hours, antagonist potency; read-out: TLR-8 EC50
# Sequence of TLR8 (Q9NR97 27-1041): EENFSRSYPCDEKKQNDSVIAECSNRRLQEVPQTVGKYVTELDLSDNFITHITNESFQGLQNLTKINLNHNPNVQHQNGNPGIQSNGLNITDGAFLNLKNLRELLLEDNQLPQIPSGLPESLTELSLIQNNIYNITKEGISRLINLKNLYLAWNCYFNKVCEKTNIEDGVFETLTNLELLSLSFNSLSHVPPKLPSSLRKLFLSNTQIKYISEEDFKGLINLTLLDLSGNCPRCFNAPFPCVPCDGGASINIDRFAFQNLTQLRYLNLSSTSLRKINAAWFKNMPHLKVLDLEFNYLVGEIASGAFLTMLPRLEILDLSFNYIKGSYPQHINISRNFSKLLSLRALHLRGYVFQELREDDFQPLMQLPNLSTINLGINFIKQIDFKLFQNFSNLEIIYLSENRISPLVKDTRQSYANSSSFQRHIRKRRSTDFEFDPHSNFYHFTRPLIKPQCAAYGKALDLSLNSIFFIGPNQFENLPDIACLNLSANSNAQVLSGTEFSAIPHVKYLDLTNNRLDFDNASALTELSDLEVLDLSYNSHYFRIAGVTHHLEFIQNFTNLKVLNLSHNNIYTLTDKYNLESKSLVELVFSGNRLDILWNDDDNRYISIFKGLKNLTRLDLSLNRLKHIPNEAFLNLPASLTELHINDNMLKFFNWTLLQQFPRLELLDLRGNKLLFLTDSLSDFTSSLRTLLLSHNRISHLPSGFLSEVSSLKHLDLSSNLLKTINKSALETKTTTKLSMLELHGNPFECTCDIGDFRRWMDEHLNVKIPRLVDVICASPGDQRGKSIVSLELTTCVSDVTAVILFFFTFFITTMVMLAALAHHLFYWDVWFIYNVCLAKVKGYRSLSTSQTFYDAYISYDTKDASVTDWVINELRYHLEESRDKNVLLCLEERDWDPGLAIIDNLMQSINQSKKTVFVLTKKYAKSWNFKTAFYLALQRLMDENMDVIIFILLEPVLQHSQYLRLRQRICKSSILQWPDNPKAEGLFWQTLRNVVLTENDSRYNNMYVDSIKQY
# Procedure: After counting, the cell density was adjusted to 2 million cells/ml and incubated for 1 hour at 37° C., 5% CO2 for recovery. Following the recovery, the cells were plated by adding 50 μl per well (100,000 cells) to 384-well cell culture plates (Greiner) containing 250 nl of test antagonists in 100% DMSO per well, in a 10 points dose response in quadruplicates. PBMCs were incubated in the presence of antagonists for one hour at 37° C., 5% CO2 before being stimulated with TLR8 agonist. […] PBMCs were incubated in the presence of antagonist and the TLR8 agonist for an additional 6 hours at 37° C., 5% CO2. At the end of the incubation, the cell culture plates were centrifuged at 500 g for 5 min, and the cell culture supernatant was collected. The level of cytokines (TNFα and IL12p40) in the supernatant was measured by electrochemiluminescence immunoassays (Mesoscale Discovery) following manufacturer's recommended protocols.
# Sequence of TLR7 (Q9NYK1 27-1049): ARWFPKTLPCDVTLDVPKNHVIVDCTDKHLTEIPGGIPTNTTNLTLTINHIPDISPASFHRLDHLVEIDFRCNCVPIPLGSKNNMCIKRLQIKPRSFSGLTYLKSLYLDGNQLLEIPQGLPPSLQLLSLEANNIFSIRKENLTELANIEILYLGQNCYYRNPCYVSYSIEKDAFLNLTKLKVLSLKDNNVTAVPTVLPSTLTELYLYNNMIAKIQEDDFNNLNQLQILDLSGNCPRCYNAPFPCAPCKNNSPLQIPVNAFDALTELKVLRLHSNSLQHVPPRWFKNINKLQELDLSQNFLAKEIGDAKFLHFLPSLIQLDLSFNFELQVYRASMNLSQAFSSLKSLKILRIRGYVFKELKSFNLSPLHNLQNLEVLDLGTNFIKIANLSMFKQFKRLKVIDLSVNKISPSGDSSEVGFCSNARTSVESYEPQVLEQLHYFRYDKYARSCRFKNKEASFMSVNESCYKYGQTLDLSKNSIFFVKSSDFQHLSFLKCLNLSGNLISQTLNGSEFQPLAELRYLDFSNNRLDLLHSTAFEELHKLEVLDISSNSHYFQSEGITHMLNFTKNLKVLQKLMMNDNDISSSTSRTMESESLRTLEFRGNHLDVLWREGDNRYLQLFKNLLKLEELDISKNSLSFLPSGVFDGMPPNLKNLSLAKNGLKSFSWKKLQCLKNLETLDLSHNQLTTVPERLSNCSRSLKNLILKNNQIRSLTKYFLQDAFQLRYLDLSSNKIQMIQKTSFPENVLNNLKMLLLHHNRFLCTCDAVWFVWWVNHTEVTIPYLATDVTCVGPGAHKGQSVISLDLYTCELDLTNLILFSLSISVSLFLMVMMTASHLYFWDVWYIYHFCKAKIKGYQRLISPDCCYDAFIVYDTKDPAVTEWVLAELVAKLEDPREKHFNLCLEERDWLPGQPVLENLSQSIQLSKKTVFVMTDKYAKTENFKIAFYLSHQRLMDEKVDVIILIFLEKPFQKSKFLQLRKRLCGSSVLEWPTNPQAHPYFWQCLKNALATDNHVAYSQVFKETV
EC50 [1] [nM],EC50 [2] [nM],SMILES
0.05,4.2,"Cc1c(C2C[C@H]3CNC[C@H]3C2)sc2[nH]c(-c3cc(C)c4ncnn4c3)c(C(C)C)c12 (single isomer, unassigned) [Example 69]"
0.35,0.39,"Cc1c(-c2[nH]c3sc(C4CC5(CCN(CC(N)=O)C5)C4)c(C)c3c2C(C)C)cn2ncnc2c1C (single isomer, unassigned) [Example 85, 2-(2-(5-(7,8-dimethyl-[1,2,4]triazolo[1,5-a]pyridin-6-yl)-4 isopropyl-3-methyl-6H-thieno[2,3-b]pyrrol-2-yl)-6-azaspiro[3.4]octan-6-yl)acetamide]"
2.43,0.98,"Cc1c(-c2[nH]c3sc(C4CC5(CCN(CC(N)=O)C5)C4)c(C)c3c2C(C)C)cn2ncnc2c1C (single isomer, unassigned) [Example 86, 2-(2-(5-(7,8-dimethyl-[1,2,4]triazolo[1,5-a]pyridin-6-yl)-4-isopropyl-3-methyl-6H-thieno[2,3-b]pyrrol-2-yl)-6-azaspiro[3.4]octan-6-yl)acetamide]"
0.87,20.9,"Cc1c(-c2[nH]c3sc(C4COC5(CCN(CC(N)=O)CC5)C4)c(C)c3c2C(C)C)cn2ncnc2c1C (single isomer, unassigned) [Example 87, 2-(3-(5-(7,8-dimethyl-[1,2,4]triazolo[1,5-a]pyridin-6-yl)-4-isopropyl-3-methyl-6H-thieno[2,3-b]pyrrol-2-yl)-1-oxa-8-azaspiro[4.5]decan-8-yl)acetamide]"
1.44,23.8,"Cc1c(-c2[nH]c3sc(C4COC5(CCN(CC(N)=O)CC5)C4)c(C)c3c2C(C)C)cn2ncnc2c1C (single isomer, unassigned) [Example 88, 2-(3-(5-(7,8-dimethyl-[1,2,4]triazolo[1,5-a]pyridin-6-yl)-4-isopropyl-3-methyl-6H-thieno[2,3-b]pyrrol-2-yl)-1-oxa-8-azaspiro[4.5]decan-8-yl)acetamide]"
0.2,–,"Cc1c(-c2[nH]c3sc(C4CC5(CNCCO5)C4)c(C)c3c2C(C)C)cn2ncnc2c1C (single isomer, unassigned) [Example 89, 2-(5-(7,8-dimethyl-[1,2,4]triazolo[1,5-a]pyridin-6-yl)-4-isopropyl-3-methyl-6H-thieno[2,3-b]pyrrol-2-yl)-5-oxa-8-azaspiro[3.5]nonane]"
2.68,6.79,"Cc1c(-c2[nH]c3sc(C4CC5(CNCCO5)C4)c(C)c3c2C(C)C)cn2ncnc2c1C (single isomer, unassigned) [Example 90, 2-(5-(7,8-dimethyl-[1,2,4]triazolo[1,5-a]pyridin-6-yl)-4-isopropyl-3-methyl-6H-thieno[2,3-b]pyrrol-2-yl)-5-oxa-8-azaspiro[3.5]nonane]"
0.7,4.45,"Cc1c(-c2[nH]c3sc([C@@H]4C[C@@H]5CC[C@H]4CN5CC(N)=O)c(C)c3c2C(C)C)cn2ncnc2c1C (single isomer, unassigned) [Example 95]"
0.83,6.75,"Cc1c(-c2[nH]c3sc([C@H]4C[C@@H]5CC[C@H]4CN5CC(N)=O)c(C)c3c2C(C)C)cn2ncnc2c1C (single isomer, unassigned) [Example 96]"
0.32,0.73,"Cc1c(-c2[nH]c3sc([C@@H]4C[C@@H]5C[C@H]4CN5C(C)C(N)=O)c(C)c3c2C(C)C)cn2ncnc2c1C (single isomer, unassigned) [Example 101]"
0.09,23.1,"Cc1c(-c2[nH]c3sc(C45CCN(CC(N)=O)CC4C5)c(C)c3c2C(C)C)cn2ncnc2c1C (single isomer, unassigned) [Example 102, 2-[6-[5-(7,8-dimethyl-[1,2,4]triazolo[1,5-a]pyridin-6-yl)-4-isopropyl-3-methyl-6H-thieno[2,3-b]pyrrol-2-yl]-3-azabicyclo[4.1.0]heptan-3-yl]acetamide]"
0.91,20.4,"Cc1c(-c2[nH]c3sc(C45CCN(CC(N)=O)CC4C5)c(C)c3c2C(C)C)cn2ncnc2c1C (single isomer, unassigned) [Example 103, 2-[6-[5-(7,8-dimethyl-[1,2,4]triazolo[1,5-a]pyridin-6-yl)-4-isopropyl-3-methyl-6H-thieno[2,3-b]pyrrol-2-yl]-3-azabicyclo[4.1.0]heptan-3-yl]acetamide]"
3.52,13.8,"Cc1c([C@H]2C[C@H]3CC[C@@H]2CN3CC(N)=O)sc2[nH]c(-c3cc(C)c4ncnn4c3)c(C(C)C)c12 (single isomer, unassigned) [Example 190]"
< 0.05,8.77,"Cc1c([C@@H]2C[C@H]3CC[C@@H]2CN3CC(N)=O)sc2[nH]c(-c3cc(C)c4ncnn4c3)c(C(C)C)c12 (single isomer, unassigned) [Example 191]"
0.45,6.78,"Cc1c(-c2[nH]c3sc([C@H]4C[C@@H]5CC[C@H]4CN5CC(=O)N(C)C)c(C)c3c2C(C)C)cn2ncnc2c1C (single isomer, unassigned) [Example 212]"
4.05,3.64,"Cc1c(-c2[nH]c3sc([C@@H]4C[C@@H]5CC[C@H]4CN5CC(=O)N(C)C)c(C)c3c2C(C)C)cn2ncnc2c1C (single isomer, unassigned) [Example 213]"
4.47,3.4,"Cc1c(-c2[nH]c3sc([C@H]4C[C@@H]5CC[C@H]4CN5CCS(C)(=O)=O)c(C)c3c2C(C)C)cn2ncnc2c1C (single isomer, unassigned) [Example 214]"
< 0.05,0.78,"Cc1c(-c2[nH]c3sc([C@H]4C[C@@H]5CC[C@H]4CN5Cc4cn(C)nn4)c(C)c3c2C(C)C)cn2ncnc2c1C (single isomer, unassigned) [Example 215]"
2.74,5.26,"Cc1c(-c2[nH]c3sc([C@@H]4C[C@@H]5CC[C@H]4CN5Cc4cn(C)nn4)c(C)c3c2C(C)C)cn2ncnc2c1C (single isomer, unassigned) [Example 216]"
0.16,0.79,"Cc1c(-c2[nH]c3sc([C@@H]4C[C@@H]5CC[C@H]4CN5CCS(C)(=O)=O)c(C)c3c2C(C)C)cn2ncnc2c1C (single isomer, unassigned) [Example 233]"
0.39,1.44,"Cc1c(-c2[nH]c3sc(C4CC(C(=O)N5CCNCC5)C4)c(C)c3c2C(C)C)cn2ncnc2c1C (single isomer, unassigned) [Example 238, (3-(5-(7,8-dimethyl-[1,2,4]triazolo[1,5-a]pyridin-6-yl)-4-isopropyl-3-methyl-6H-thieno[2,3-b]pyrrol-2-yl)cyclobutyl)(piperazin-1-yl)methanone]"
< 0.05,1.5,"Cc1c(-c2[nH]c3sc(C4CC(C(=O)N5CCNCC5)C4)c(C)c3c2C(C)C)cn2ncnc2c1C (single isomer, unassigned) [Example 239, (3-(5-(7,8-dimethyl-[1,2,4]triazolo[1,5-a]pyridin-6-yl)-4-isopropyl-3-methyl-6H-thieno[2,3-b]pyrrol-2-yl)cyclobutyl)(piperazin-1-yl)methanone]"
4.86,48.4,"Cc1c(-c2[nH]c3sc(C4CC(c5nnc([C@H]6COCCN6)o5)C4)c(C)c3c2C(C)C)cn2ncnc2c1C (single isomer, unassigned) [Example 240]"
3.51,30.7,"Cc1c(-c2[nH]c3sc(C4CC(c5nnc([C@H]6COCCN6)o5)C4)c(C)c3c2C(C)C)cn2ncnc2c1C (single isomer, unassigned) [Example 241]"
